Experimental data: US12383512B2, “Cannabidiol-type cannabinoid compound” (Jazz Pharmaceuticals Research UK LImited, priority 2019, dated 2025)
Like-named read-outs stand apart in the source and are kept apart here.

Assay: Plasma and brain pharmacokinetics after single intravenous or intraperitoneal administration to the mouse
Assay type: in vivo
Conditions: for Kp: brain/plasma, other: intravenous and intraperitoneal, all IV and IP dose groups
From the text: The objective of this study was to determine brain and plasma pharmacokinetic parameters of 6-OH CBD following a single intravenous or intraperitoneal administration of 6-OH CBD to the mouse; and to determine brain: plasma concentration ratios for 6-OH CBD.
Ninety-nine male mice each received a single intravenous or intraperitoneal dose of 6-OH CBD, as detailed below in Table 3.
For each formulation, 6-OH CBD was formulated at the required concentration in ethanol: Kolliphor EL (Cremophor EL): 0.9% (w/v) Saline (1:1:18, v/v/v).
Each animal received a single intravenous administration, via a tail vein, at a nominal dose volume of 2 mL/kg or a single intraperitoneal administration at a nominal dose volume of 5 mL/kg.
Following dosing, terminal blood samples were collected from each animal via cardiac puncture, and brains were excised, at each of the following time points: • Intravenous groups: 7, 15 and 30 minutes, 1, 2, 4, 8, 12 and 24 hours; • Intraperitoneal groups: 15 and 30 minutes, 1, 2, 4, 8, 12 and 24 hours.
Blood was collected into tubes containing lithium heparin anticoagulant and centrifuged to prepare plasma. Brain samples were frozen on dry ice, then weighed and stored deep frozen prior to bioanalysis. The remaining carcasses were discarded. Plasma was stabilised with an equal volume of ascorbic acid solution, then stored deep frozen prior to bioanalysis.
Stabilised plasma samples were analysed to determine the concentrations of 6-OH CBD, using qualified LC-MS/MS methods. The results of these analyses were evaluated to determine non-compartmental pharmacokinetic parameters.
The following parameters were determined: • Cmax Maximum concentration observed. • Tmax Time of maximum observed concentration. • AUC0-t Area under the concentration-time curve from hour 0 to the last quantifiable concentration, estimated by the linear trapezoidal rule. • AUC0-24 Area under the concentration-time curve from hour 0 to hour 24, estimated using the linear trapezoidal rule. • t1/2 Elimination half-life, determined as In(2)/λz. • Cl Clearance, calculated (for intravenous doses only) as Dose/AUC0-inf. • Vss Volume of distribution, based on the terminal elimination phase, calculated (for intravenous doses only) as Cl/λz. • Fabs Absolute bioavailability of the intraperitoneal dose.

SMILES: C=C(C)[C@@H]1CC(O)C(C)=C[C@H]1c1c(O)cc(CCCCC)cc1O (stereo partly drawn) [6-OH CBD, Alpha 6-hydroxy cannabidiol]
- increase in brain AUC0-24 for a 10-fold increase in dose level (brain, IP 3 to 30 mg/kg): 32.6 fold
- increase in brain Cmax for a 10-fold increase in dose level (brain, IP 3 to 30 mg/kg): 15.8 fold
- Cmax (male, brain, IP 3 mg/kg): 851 ng/mL
- Cmax (male, brain, IP 10 mg/kg): 3680 ng/mL
- Cmax (male, brain, IP 30 mg/kg): 13500 ng/mL
- Cmax (male, brain, IV 1 mg/kg): 1580 ng/mL
- AUC(0-t) (male, brain, ip, 3 mg/kg, brain, IP 3 mg/kg, read-out: AUC0-24): 768 ng·h/mL
- AUC(0-t) (male, brain, ip, 3 mg/kg, brain, IP 3 mg/kg, read-out: AUC0-t): 756 ng·h/mL
- Tmax (male, brain, ip, 3 mg/kg, brain, IP 3 mg/kg, read-out: Tmax (converted)): 30 min
- half-life (male, brain, ip, 3 mg/kg, brain, IP 3 mg/kg, read-out: t1/2 (converted)): 34.1 min
- AUC(0-t) (male, brain, ip, 10 mg/kg, brain, IP 10 mg/kg, read-out: AUC0-24): 3940 ng·h/mL
- AUC(0-t) (male, brain, ip, 10 mg/kg, brain, IP 10 mg/kg, read-out: AUC0-t): 3750 ng·h/mL
- Tmax (male, brain, ip, 10 mg/kg, brain, IP 10 mg/kg, read-out: Tmax (converted)): 15 min
- half-life (male, brain, ip, 10 mg/kg, brain, IP 10 mg/kg, read-out: t1/2 (converted)): 42.4 min
- AUC(0-t) (male, brain, ip, 30 mg/kg, brain, IP 30 mg/kg, read-out: AUC0-24): 25000 ng·h/mL
- AUC(0-t) (male, brain, ip, 30 mg/kg, brain, IP 30 mg/kg, read-out: AUC0-t): 25000 ng·h/mL
- Tmax (male, brain, ip, 30 mg/kg, brain, IP 30 mg/kg, read-out: Tmax (converted)): 60 min
- half-life (male, brain, ip, 30 mg/kg, brain, IP 30 mg/kg, read-out: t1/2 (converted)): 55.1 min
- half-life (male, brain, ip, brain, IP administration 3-30 mg/kg, read-out: t1/2 range): 34.1 to 55.1 min
- Tmax (male, brain, ip, brain, after IP dosing (3-30 mg/kg), read-out: Tmax range): 15 to 60 min
- AUC(0-t) (male, brain, iv, 1 mg/kg, brain, IV 1 mg/kg, read-out: AUC0-24): 690 ng·h/mL
- AUC(0-t) (male, brain, iv, 1 mg/kg, brain, IV 1 mg/kg, read-out: AUC0-t): 679 ng·h/mL
- Tmax (male, brain, iv, 1 mg/kg, brain, IV 1 mg/kg, read-out: Tmax (converted)): 7.02 min
- half-life (male, brain, iv, 1 mg/kg, brain, IV 1 mg/kg, read-out: t1/2 (converted)): 18.7 min
- Kp (male, read-out: Brain: plasma ratio for AUC0-24, range): 1.41 to 2.01
- Kp (male, read-out: Brain: plasma ratio for Cmax, range): 1.23 to 2.03
- Cmax (male, plasma, IP 3 mg/kg): 658 ng/mL
- Cmax (male, plasma, IP 10 mg/kg): 2550 ng/mL
- Cmax (male, plasma, IP 30 mg/kg): 11000 ng/mL
- Cmax (male, plasma, IV 1 mg/kg): 775 ng/mL
- clearance (male, plasma, IV 1 mg/kg): 48.7 mL/min/kg
- Vd (male, plasma, IV 1 mg/kg, read-out: Vss): 1.9 L/kg
- AUC(0-t) (male, plasma, ip, 3 mg/kg, plasma, IP 3 mg/kg, read-out: AUC0-24): 535 ng·h/mL
- AUC(0-t) (male, plasma, ip, 3 mg/kg, plasma, IP 3 mg/kg, read-out: AUC0-t): 533 ng·h/mL
- Tmax (male, plasma, ip, 3 mg/kg, plasma, IP 3 mg/kg, read-out: Tmax (converted)): 15 min
- half-life (male, plasma, ip, 3 mg/kg, plasma, IP 3 mg/kg, read-out: t1/2 (converted)): 59.6 min
- AUC(0-t) (male, plasma, ip, 10 mg/kg, plasma, IP 10 mg/kg, read-out: AUC0-24): 2600 ng·h/mL
- AUC(0-t) (male, plasma, ip, 10 mg/kg, plasma, IP 10 mg/kg, read-out: AUC0-t): 2590 ng·h/mL
- Tmax (male, plasma, ip, 10 mg/kg, plasma, IP 10 mg/kg, read-out: Tmax (converted)): 15 min
- half-life (male, plasma, ip, 10 mg/kg, plasma, IP 10 mg/kg, read-out: t1/2 (converted)): 64.8 min
- AUC(0-t) (male, plasma, ip, 30 mg/kg, plasma, IP 30 mg/kg, read-out: AUC0-24): 17700 ng·h/mL
- AUC(0-t) (male, plasma, ip, 30 mg/kg, plasma, IP 30 mg/kg, read-out: AUC0-t): 17700 ng·h/mL
- Tmax (male, plasma, ip, 30 mg/kg, plasma, IP 30 mg/kg, read-out: Tmax (converted)): 15 min
- half-life (male, plasma, ip, 30 mg/kg, plasma, IP 30 mg/kg, read-out: t1/2 (converted)): 57.5 min
- Tmax (male, plasma, ip, 30 mg/kg, plasma, IP 3, 10 or 30 mg/kg (each dose level), read-out: Tmax (converted)): 15 min
- half-life (male, plasma, ip, 30 mg/kg, plasma, IP 3, 10 or 30 mg/kg, read-out: t1/2 range across dose levels): 59.6 to 64.8 min
- AUC(0-t) (male, plasma, iv, 1 mg/kg, plasma, IV 1 mg/kg, read-out: AUC0-24): 343 ng·h/mL
- AUC(0-t) (male, plasma, iv, 1 mg/kg, plasma, IV 1 mg/kg, read-out: AUC0-t): 342 ng·h/mL
- Tmax (male, plasma, iv, 1 mg/kg, plasma, IV 1 mg/kg, read-out: Tmax (converted)): 7.02 min
- half-life (male, plasma, iv, 1 mg/kg, plasma, IV 1 mg/kg, read-out: t1/2 (converted)): 27.1 min
- Fabs (plasma, IP 3 mg/kg): 52.1%
- Fabs (plasma, IP 10 mg/kg): 75.8%
- Fabs (plasma, IP 30 mg/kg): 173%
- increase in plasma AUC0-24 for a 10-fold increase in dose level (plasma, IP 3 to 30 mg/kg): 33.2 fold
- increase in plasma Cmax for a 10-fold increase in dose level (plasma, IP 3 to 30 mg/kg): 16.7 fold
